Assay results: publication PMC5864073, “A D-enantiomer of the antimicrobial peptide GL13K evades antimicrobial resistance in the Gram positive bacteria Enterococcus faecalis and Streptococcus gordonii” (PLoS ONE, 2018)
Where a SMILES comes first, the peptide text is derived from it.

Assays:
[1] = system: S. gordonii DL1 (wild-type); assay: Minimal inhibitory concentration, broth dilution; format: cell-based, Streptococcus gordonii; design: key: >: Mean MIC is above the tested concentration range (this value was set at 200 mg/L for data analysis); details: THB, 20 h, 37°C
Method: (§1) The minimal inhibitory concentration (MIC) assays were performed essentially as described for cationic AMPs, but using streptococcal growth-friendly THB without the addition of blood or serum components. A working stock of 1-5x10^5 CFU/ml in 90 or 100 μl THB was added to 10 or 20 μl of a 2-fold serial peptide dilution in 0.01% acetic acid and incubated for 20 h at 37°C in 96-well polypropylene plates. The OD at 600 nm (OD600) was determined in a Synergy HT plate reader (BioTek, Winooski, VT). Control wells for growth without peptide and growth medium without bacteria were included. Bacterial cell numbers in the inoculum were verified by colony count.

[2] = system: E. faecalis OG1RF (wild-type); assay: Minimal inhibitory concentration, broth dilution; format: cell-based, Enterococcus faecalis; design: key to MIC (mg/L): >: Mean MIC is above the tested concentration range (this value was set at 200 mg/L for data analysis); details: THB, 20 h, 37°C
Method: as §1

E. faecalis OG1RF [3] = assay: Bactericidal activity in PBS+0.05% Triton X-100; format: cell-based, Enterococcus faecalis; details: PBS+0.05% Triton X-100, peptide 100 mg/L, 2 h, CFU on THA, N = 5
Method: (§2) The lysis assay followed an established protocol for bacterial autolysis with minor modifications. Exponentially growing cells were washed twice in PBS then washed once in ice-cold dH2O. The bacteria were incubated in PBS with 0.05% Triton X-100 and peptides at a concentration of 100 mg/L. OD600 was monitored spectrophotometrically for 180 min. In some experiments, the cells were incubated with the peptides for 2h in PBS+0.05% Triton X-100 and then cultured on THA to enumerate surviving cells.
(§3) Fig 2 Effect of GL13K peptides on Triton X-100 induced autolysis. E. faecalis OG1RF (A) or the autolysis-deficient strain TX5128 (B) were incubated in PBS with 0.05% Triton X-100 in the absence of peptide (control) or in the presence of 100 mg/L of L-GL13K or D-GL13K (D). The OD600 was recorded for 180 min and expressed as a percent of starting OD600 of the control sample. (C): Bactericidal activity of GL13K peptides in PBS+0.05% Triton X-100. E. faecalis OG1RF were incubated with 0.05% Triton X-100 in the absence of peptide (Ctrl) or with L-GL13K or D-GL13K for 2h. Surviving CFU were enumerated and are shown as mean ± SEM (N = 5). Peptide treated samples were compared to the untreated control by Kruskal-Wallis test with Dunn’s multiple comparison post-test. n.s., not significant.

E. faecalis OG1RF [4] = assay: Triton X-100 induced bacterial autolysis assay; format: cell-based, Enterococcus faecalis; details: PBS with 0.05% Triton X-100, peptide 100 mg/L, OD600 for 180 min
Method: as §2, §3

[5] = system: E. faecalis dltA mutant (TX5427); assay: Selection for peptide resistance, serial MIC assays; format: cell-based, Enterococcus faecalis; details: serial passage at 0.5 x MIC, L-GL13K after two rounds, D-GL13K after seven rounds, three experiments
Method: (§4) To investigate potential resistance development against the GL13K peptides, dilutions of the peptides were prepared and incubated as described for the MIC assay. The next day (day 0), the MIC was recorded and the culture in the well with the highest peptide concentration that allowed growth (i.e 0.5 x MIC) was diluted 1:100 and used as an inoculum for the next round of selection in a new MIC assay and so forth until a stable plateau of resistance was reached.
(§5) Fig 4 Development of resistance in E. faecalis. MICs for L-GL13K (circles) and D-GL13K (squares) were recorded on consecutive days using E. faecalis OG1RF (wild-type) (open symbols) (D-enantiomer only) and dltA (closed symbols). The MIC for each day is expressed relative to the starting MIC (day 0). Data from three experiments are shown as mean ± SEM.

[6] = system: E. faecalis OG1RF dltA (TX5427); assay: Minimal inhibitory concentration, broth dilution; format: cell-based, Enterococcus faecalis; details: THB, 20 h, 37°C, OD600, mean ± SEM
Method: as §1

[7] = system: conditioned supernatant of protease-deficient E. faecalis (TX5128); assay: Proteolysis of peptide by conditioned culture supernatant (P. aeruginosa Xen41 bioassay); format: in vitro ADME, Enterococcus faecalis; details: conditioned sterile-filtered supernatant of protease-deficient E. faecalis TX5128, peptide 32 mg/L, 2 h, 37°C; bioluminescence read-out after 15 min; three independent experiments
Method: (§6) To test proteolytic processing of GL13K peptides, overnight bacterial cultures were centrifuged (5 min, 13,000 g) and the conditioned supernatants were sterile-filtered (0.22 μm, Corning). Filtered supernatant (16.8 μl) was incubated with 3.2 μl (3.2 μg) peptide at 37°C for 2 h to allow bacterial proteases in the supernatant to process the peptide. To determine residual peptide activity, 70 μl of 10 mM sodium phosphate buffer, pH 7.4 was added to each sample and then supplemented with 10 μl (10^8 CFU) of bioluminescent Pseudomonas aeruginosa Xen41 (Caliper Lifesciences; now Perkin Elmer, MA) that had been washed three times in 0.9% NaCl (final maximal peptide concentration 32 mg/L). Viability of the indicator bacteria was determined after 15 min incubation at 37°C by determining bioluminescence in a Synergy HT plate reader. The luminescence detected in the absence of added peptide was used as a measure of 100% proteolysis.
(§7) Fig 1 Relative proteolysis of GL13K peptides. (A): Wild-type (OG1RF) or the protease-negative strain (TX5128) of E. faecalis was cultured on THA containing 3% gelatin. Gelatinase activity was visualized as a turbid halo around the bacterial colonies; (B): L-GL13K (L) or D-GL13K (D) (32 mg/L) was incubated with conditioned supernatant of wild-type (OG1RF) or the protease-negative strain (TX5128) of E. faecalis for 2 h. Residual peptide activity was determined by adding bioluminescent P. aeruginosa Xen41 to the mixture. Bioluminescence from surviving bacteria was used as a measure of proteolytic degradation of each peptide and expressed relative to bacterial bioluminescence in the absence of peptides (equivalent to 100% proteolysis). Data are shown as mean ± SEM from three independent experiments and were analyzed by paired t-test for each strain. n.s., not significant.

[8] = system: conditioned supernatant of wild-type E. faecalis (OG1RF); assay: as above; format: in vitro ADME, Enterococcus faecalis; details: conditioned sterile-filtered supernatant of E. faecalis OG1RF, peptide 32 mg/L, 2 h, 37°C; bioluminescence read-out after 15 min; three independent experiments
Method: as §6, §7

[9] = system: E. faecalis OG1RF dltA (TX5427) biofilm; assay: Biofilm assay (Calgary device); format: cell-based, Enterococcus faecalis; details: 24 h biofilm of OG1RF dltA, peptide 100 mg/L, 4 h, CFU relative to the wild-type biofilm
Method: (§8) E. faecalis OG1RF, TX5427 or V583 were cultured in a Calgary device for 24h in THB. Biofilms were treated with peptides (100 mg/L) for 4h and surviving cells were sonicated and plated on THA for enumeration of CFUs.
(§9) Fig 3 Effect of GL13K peptides on biofilms of E. faecalis. Twenty-four hour biofilms of OG1RF; OG1RF dltA or V583 were treated with 100 mg/L of L-GL13K (L) or D-GL13K (D). Surviving CFU were enumerated from each peg and expressed relative to the mean CFU recovered from pegs of wild-type cells treated with buffer alone (OG1RF—C). Data from 2–4 experiments are expressed as mean ± SEM (N = 6–13). V583 was only treated with D-GL13K.

[10] = system: E. faecalis OG1RF biofilm; assay: Biofilm assay (Calgary device); format: cell-based, Enterococcus faecalis; details: 24 h biofilm of OG1RF, peptide 100 mg/L, 4 h, CFU enumerated
Method: as §8, §9

S. gordonii DL1 dltA = assay: Minimal inhibitory concentration, broth dilution; format: cell-based, Streptococcus gordonii; details: THB, 20 h, 37°C, OD600, mean ± SEM
Method: as §1

S. gordonii DL1 atlS = assay: Minimal inhibitory concentration, broth dilution; format: cell-based, Streptococcus gordonii; details: THB, 20 h, 37°C, OD600, mean ± SEM
Method: as §1

[11] = system: vancomycin-resistant E. faecalis V583; assay: Minimal inhibitory concentration, broth dilution; format: cell-based, Enterococcus faecalis; design: key: >: Mean MIC is above the tested concentration range (this value was set at 200 mg/L for data analysis); details: THB, 20 h, 37°C, symbol
Method: as §1

[12] = system: E. faecalis OG1RF::pMSP7551; assay: Minimal inhibitory concentration, broth dilution; format: cell-based, Enterococcus faecalis; design: key: >: Mean MIC is above the tested concentration range (this value was set at 200 mg/L for data analysis); details: E. faecalis OG1RF::pMSP7551 (un-induced); THB, 20 h, 37°C; symbol
Method: as §1

[13] = system: E. faecalis OG1RF::pMSP7551+nisin; assay: Minimal inhibitory concentration, broth dilution; format: cell-based, Enterococcus faecalis; design: key: >: Mean MIC is above the tested concentration range (this value was set at 200 mg/L for data analysis); details: E. faecalis OG1RF::pMSP7551+nisin (induced); THB, 20 h, 37°C; symbol
Method: as §1

E. faecalis OG1RF ebsG = assay: Minimal inhibitory concentration, broth dilution; format: cell-based, Enterococcus faecalis; design: key: >: Mean MIC is above the tested concentration range (this value was set at 200 mg/L for data analysis); details: THB, 20 h, 37°C, symbol
Method: as §1

[14] = system: E. faecalis TX5128 (gelE-, SprE-); assay: Minimal inhibitory concentration, broth dilution; format: cell-based, Enterococcus faecalis; design: key: >: Mean MIC is above the tested concentration range (this value was set at 200 mg/L for data analysis); details: THB, 20 h, 37°C
Method: as §1

[15] = system: S. gordonii DL1 (wild-type); assay: Selection for peptide resistance, serial MIC assays; format: cell-based, Streptococcus gordonii; details: repeated treatment with sub-inhibitory concentrations, 2–3 experiments
Method: as §4
as §5, with “6” for “4”, “S. gordonii.” for “E. faecalis.”, “S. gordonii DL1” for “E. faecalis OG1RF”, “2–3” for “three”, “range.” for “SEM.”

S. gordonii dltA mutant = assay: as above; format: cell-based, Streptococcus gordonii; details: repeated treatment with sub-inhibitory concentrations, 2–3 experiments
Method: as §4
as §5, with “6” for “4”, “S. gordonii.” for “E. faecalis.”, “S. gordonii DL1” for “E. faecalis OG1RF”, “2–3” for “three”, “range.” for “SEM.”

wild-type E. faecalis = assay: Bactericidal activity in sodium phosphate buffer; format: cell-based, Enterococcus faecalis; details: 10^8 CFU/ml wild-type E. faecalis, no energy source, 10 mM sodium-phosphate pH 7.4, 2 h, 37°C, spotted on THA; D N = 4, L N = 3
Method: These assays were performed according to our established protocol with some modifications. Cells were washed three times in 0.9% NaCl and five μl of washed cells (10^9 CFU/ml) were added to the peptides diluted 2-fold (128 to 4 mg/L) in 45 μl of 10 mM sodium-phosphate, pH 7.4. The samples were incubated at 37°C for 2 h and 10 μl were then spotted on THA plates to assess bactericidal activity.

For `CC[C@H](C)[C@H](NC(=O)[C@H](CCCCN)NC(=O)CN)C(=O)N[C@H](C(=O)N[C@@H](CCCCN)C(=O)N[C@@H](CC(C)C)C(=O)N[C@@H](CCCCN)C(=O)N[C@@H](C)C(=O)N[C@@H](CO)C(=O)N[C@@H](CC(C)C)C(=O)N[C@@H](CCCCN)C(=O)N[C@@H](CC(C)C)C(=O)N[C@@H](CC(C)C)C(N)=O)[C@@H](C)CC` [L-GL13K, Gly-Lys-Ile-Ile-Lys-Leu-Lys-Ala-Ser-Leu-Lys-Leu-Leu-NH2] (H-GKIIKLKASLKLL-NH2; N-terminus assumed), the “MIC (mg/L)” value ([1]; OD600, mean ± SEM) was “resistant”, the “MIC (mg/L)” value ([1]; symbol) was “>” and the “MIC” value ([2]; 1-5x10^5 CFU/ml, OD600, mean ± SEM) was > 512 µg/mL. For the same compound, the “MIC (mg/L)” value ([2]; OD600, symbol) was “>”, the “Reduction of viable cells under autolysis conditions” value (E. faecalis OG1RF [3]) was “small, yet non-significant, reduction of cell numbers” and the “Effect on Triton X-100 induced autolysis (OD600)” value (E. faecalis OG1RF [4]) was “somewhat reduced autolysis”. For the same compound, the “Increase of MIC relative to starting MIC (day 0)” value [5] was 8 fold, the “MIC” value [6] was 70 ± 17 µg/mL and the “Proteolysis of peptide (loss of activity against bioluminescent P. aeruginosa Xen41)” value [7] was “did not show significant proteolysis”. The “Proteolysis of peptide (loss of activity against bioluminescent P. aeruginosa Xen41)” value [8] was “almost complete proteolysis”, the “Reduction of viable biofilm CFU” value [9] was “three orders of magnitude” and the “Reduction of viable biofilm CFU” value [10] was “ineffective”. For the same compound, the “MIC” value (S. gordonii DL1 dltA) was 11 ± 3 µg/mL, the “MIC” value (S. gordonii DL1 atlS) was 63 ± 8 µg/mL and the “MIC (mg/L)” value [11] was “>”. For the same compound, the “MIC (mg/L)” value [12] was “>”, the “MIC (mg/L)” value [13] was “>” and the “MIC (mg/L)” value (E. faecalis OG1RF ebsG) was “>”. The “MIC (mg/L)” value ([14]; OD600, mean ± SEM) was “did not inhibit growth”, the “MIC (mg/L)” value ([14]; symbol) was “>” and the “Increase of MIC relative to starting MIC (day 0)” value [15] was 6 fold. For the same compound, the “Increase of MIC relative to starting MIC (day 0)” value (S. gordonii dltA mutant) was 16 fold and the “Peptide concentration required for complete killing” value (wild-type E. faecalis) was 48 ± 23 mg/L.
